In ChEMBL document CHEMBL1124696, “Nucleoside peptides. 10. Synthesis and T-cell immunostimulatory properties of certain peptide derivatives of 6-azacadeguomycin” (1989):

Columns and labels:
Assay type in all cases: functional
Homo sapiens [1] = organism: Homo sapiens; experiment: Mitogen-induced human lymphocyte proliferation measured by incorporation of [3H]thymidine in lymphocytes with Concanavalin A (Con A) at a concentration of 0.25 microg with compound at 50 uM
Homo sapiens [2] = organism: Homo sapiens; experiment: Mitogen-induced human lymphocyte proliferation measured by incorporation of [3H]thymidine in lymphocytes with Phytohemagglutininin at a concentration of 1 ug with compound at 1 uM
Homo sapiens [3] = organism: Homo sapiens; experiment: Mitogen-induced human lymphocyte proliferation measured by incorporation of [3H]thymidine in lymphocytes with Phytohemagglutininin at a concentration of 0.125 microg with compound at 1 uM
Homo sapiens [4] = organism: Homo sapiens; experiment: Mitogen-induced human lymphocyte proliferation measured by incorporation of [3H]thymidine in lymphocytes with Pokeweed mitogen at a concentration of 1/5000 microg with compound at 10 uM
Homo sapiens [5] = organism: Homo sapiens; experiment: Mitogen-induced human lymphocyte proliferation measured by incorporation of [3H]thymidine in lymphocytes with Pokeweed mitogen at a concentration of 1/5000 microg with compound at 50 uM
Homo sapiens [6] = organism: Homo sapiens; experiment: Mitogen-induced human lymphocyte proliferation measured by incorporation of [3H]thymidine in lymphocytes with Phytohemagglutininin at a concentration of 0.125 microg with compound at 0.1 uM
Homo sapiens [7] = organism: Homo sapiens; experiment: Mitogen-induced human lymphocyte proliferation measured by incorporation of [3H]-thymidine in lymphocytes with Pokeweed mitogen at a concentration of 1/1250 microg with out compound
Homo sapiens [8] = organism: Homo sapiens; experiment: Mitogen-induced human lymphocyte proliferation measured by incorporation of [3H]thymidine in lymphocytes with Pokeweed mitogen at a concentration of 1/1250 microg with compound at 10 uM
Homo sapiens [9] = organism: Homo sapiens; experiment: Mitogen-induced human lymphocyte proliferation measured by incorporation of [3H]thymidine in lymphocytes with Pokeweed mitogen at a concentration of 1/1250 microg with compound at 1 uM
Homo sapiens [10] = organism: Homo sapiens; experiment: Mitogen-induced human lymphocyte proliferation measured by incorporation of [3H]thymidine in lymphocytes with Phytohemagglutininin at a concentration of 0.125 microg with compound at 400 uM
Homo sapiens [11] = organism: Homo sapiens; experiment: Mitogen-induced human lymphocyte proliferation measured by incorporation of [3H]thymidine in lymphocytes with Concanavalin A (Con A) at a concentration of 0.25 microg with out compound
Homo sapiens [12] = organism: Homo sapiens; experiment: Mitogen-induced human lymphocyte proliferation measured by incorporation of [3H]thymidine in lymphocytes with Concanavalin A at a concentration of 0.25 microg with compound at 400 uM
Homo sapiens [13] = organism: Homo sapiens; experiment: Mitogen-induced human lymphocyte proliferation measured by incorporation of [3H]thymidine in lymphocytes with Phytohemagglutininin at a concentration of 0.125 microg with out compound
Homo sapiens [14] = organism: Homo sapiens; experiment: Mitogen-induced human lymphocyte proliferation measured by incorporation of [3H]thymidine in lymphocytes with Pokeweed mitogen at a concentration of 1/5000 microg with out compound
Homo sapiens [15] = organism: Homo sapiens; experiment: Mitogen-induced human lymphocyte proliferation measured by incorporation of [3H]thymidine in lymphocytes with Phytohemagglutininin at a concentration of 1 ug with compound at 10 uM
Homo sapiens [16] = organism: Homo sapiens; experiment: Mitogen-induced human lymphocyte proliferation measured by incorporation of [3H]thymidine in lymphocytes with Phytohemagglutininin at a concentration of 1 ug with out compound
Homo sapiens [17] = organism: Homo sapiens; experiment: Mitogen-induced human lymphocyte proliferation measured by incorporation of [3H]thymidine in lymphocytes with Phytohemagglutininin at a concentration of 1 ug with compound at 400 uM
Homo sapiens [18] = organism: Homo sapiens; experiment: Mitogen-induced human lymphocyte proliferation measured by incorporation of [3H]thymidine in lymphocytes with Concanavalin A (Con A) at a concentration of 0.25 microg with compound at 0.1 uM
Homo sapiens [19] = organism: Homo sapiens; experiment: Mitogen-induced human lymphocyte proliferation measured by incorporation of [3H]thymidine in lymphocytes with Pokeweed mitogen at a concentration of 1/5000 microg with compound at 0.1 uM
Homo sapiens [20] = organism: Homo sapiens; experiment: Mitogen-induced human lymphocyte proliferation measured by incorporation of [3H]thymidine in lymphocytes with Pokeweed mitogen at a concentration of 1/1250 microg with compound at 50 uM
Homo sapiens [21] = organism: Homo sapiens; experiment: Mitogen-induced human lymphocyte proliferation measured by incorporation of [3H]thymidine in lymphocytes with Phytohemagglutininin at a concentration of 0.125 microg with compound at 10 uM
Homo sapiens [22] = organism: Homo sapiens; experiment: Mitogen-induced human lymphocyte proliferation measured by incorporation of [3H]thymidine in lymphocytes with Concanavalin A (Con A) at a concentration of 0.25 microg with compound at 10 uM
Homo sapiens [23] = organism: Homo sapiens; experiment: Mitogen-induced human lymphocyte proliferation measured by incorporation of [3H]thymidine in lymphocytes with Phytohemagglutininin at a concentration of 1 ug with compound at 50 uM
Homo sapiens [24] = organism: Homo sapiens; experiment: Mitogen-induced human lymphocyte proliferation measured by incorporation of [3H]thymidine in lymphocytes with Pokeweed mitogen at a concentration of 1/5000 microg with compound at 1 uM
Homo sapiens [25] = organism: Homo sapiens; experiment: Mitogen-induced human lymphocyte proliferation measured by incorporation of [3H]thymidine in lymphocytes with Pokeweed mitogen at a concentration of 1/1250 microg with compound at 400 uM
Homo sapiens [26] = organism: Homo sapiens; experiment: Mitogen-induced human lymphocyte proliferation measured by incorporation of [3H]thymidine in lymphocytes with Pokeweed mitogen at a concentration of 1/1250 microg with compound at 0.1 uM
Homo sapiens [27] = organism: Homo sapiens; experiment: Mitogen-induced human lymphocyte proliferation measured by incorporation of [3H]thymidine in lymphocytes with Phytohemagglutininin at a concentration of 0.125 microg with compound at 50 uM
Homo sapiens [28] = organism: Homo sapiens; experiment: Mitogen-induced human lymphocyte proliferation measured by incorporation of [3H]thymidine in lymphocytes with Pokeweed mitogen at a concentration of 1/5000 microg with compound at 400 uM
Homo sapiens [29] = organism: Homo sapiens; experiment: Mitogen-induced human lymphocyte proliferation measured by incorporation of [3H]thymidine in lymphocytes with Phytohemagglutininin at a concentration of 1 ug with compound at 0.1 uM
Homo sapiens [30] = organism: Homo sapiens; experiment: Mitogen-induced human lymphocyte proliferation measured by incorporation of [3H]thymidine in lymphocytes with Concanavalin A (Con A) at a concentration of 0.25 microg with compound at 1 uM
Homo sapiens [31] = organism: Homo sapiens; experiment: Mitogen-induced human lymphocyte proliferation measured by incorporation of [3H]thymidine in lymphocytes with Phytohemagglutininin at a concentration of 0.25 ug with compound at 10 uM
Homo sapiens [32] = organism: Homo sapiens; experiment: Mitogen-induced human lymphocyte proliferation measured by incorporation of [3H]-thymidine in lymphocytes with Phytohemagglutininin at a concentration of 1 ug with compound at 10 uM
Homo sapiens [33] = organism: Homo sapiens; experiment: Mitogen-induced human lymphocyte proliferation measured by incorporation of [3H]thymidine in lymphocytes with Concanavalin A (Con A) at a concentration of 0.5 ug with compound at 10 uM
Homo sapiens [34] = organism: Homo sapiens; experiment: Mitogen-induced human lymphocyte proliferation measured by incorporation of [3H]thymidine in lymphocytes with Concanavalin A (Con A) at a concentration of 0.5 ug with compound at 50 uM
Homo sapiens [35] = organism: Homo sapiens; experiment: Mitogen-induced human lymphocyte proliferation measured by incorporation of [3H]thymidine in lymphocytes with Pokeweed mitogen at a concentration of 1/1250 ug with compound at 400 uM
Homo sapiens [36] = organism: Homo sapiens; experiment: Mitogen-induced human lymphocyte proliferation measured by incorporation of [3H]-thymidine in lymphocytes with Phytohemagglutininin at a concentration of 0.25 ug with compound at 0.1 uM
Homo sapiens [37] = organism: Homo sapiens; experiment: Mitogen-induced human lymphocyte proliferation measured by incorporation of [3H]thymidine in lymphocytes with Pokeweed mitogen at a concentration of 1/1250 ug with compound at 50 uM
Homo sapiens [38] = organism: Homo sapiens; experiment: Mitogen-induced human lymphocyte proliferation measured by incorporation of [3H]thymidine in lymphocytes with Pokeweed mitogen at a concentration of 1/1250 ug with out compound
Homo sapiens [39] = organism: Homo sapiens; experiment: Mitogen-induced human lymphocyte proliferation measured by incorporation of [3H]thymidine in lymphocytes with Pokeweed mitogen at a concentration of 1/1250 ug with compound at 0.1 uM
Homo sapiens [40] = organism: Homo sapiens; experiment: Mitogen-induced human lymphocyte proliferation measured by incorporation of [3H]thymidine in lymphocytes with Concanavalin A (Con A) at a concentration of 0.5 ug with compound at 0.1 uM
Homo sapiens [41] = organism: Homo sapiens; experiment: Mitogen-induced human lymphocyte proliferation measured by incorporation of [3H]thymidine in lymphocytes with Concanavalin A at a concentration of 0.5 ug with compound at 400 uM
Homo sapiens [42] = organism: Homo sapiens; experiment: Mitogen-induced human lymphocyte proliferation measured by incorporation of [3H]thymidine in lymphocytes with Pokeweed mitogen at a concentration of 1/1250 ug with compound at 10 uM
Homo sapiens [43] = organism: Homo sapiens; experiment: Mitogen-induced human lymphocyte proliferation measured by incorporation of [3H]thymidine in lymphocytes with Phytohemagglutininin at a concentration of 0.25 ug with out compound
Homo sapiens [44] = organism: Homo sapiens; experiment: Mitogen-induced human lymphocyte proliferation measured by incorporation of [3H]thymidine in lymphocytes with Phytohemagglutininin at a concentration of 0.25 ug with compound at 50 uM
Homo sapiens [45] = organism: Homo sapiens; experiment: Mitogen-induced human lymphocyte proliferation measured by incorporation of [3H]thymidine in lymphocytes with Phytohemagglutininin at a concentration of 0.25 ug with compound at 400 uM
Homo sapiens [46] = organism: Homo sapiens; experiment: Mitogen-induced human lymphocyte proliferation measured by incorporation of [3H]thymidine in lymphocytes with Phytohemagglutininin at a concentration of 0.25 ug with compound at 1 uM
Homo sapiens [47] = organism: Homo sapiens; experiment: Mitogen-induced human lymphocyte proliferation measured by incorporation of [3H]thymidine in lymphocytes with Concanavalin A (Con A) at a concentration of 0.5 ug with out compound
Homo sapiens [48] = organism: Homo sapiens; experiment: Mitogen-induced human lymphocyte proliferation measured by incorporation of [3H]-thymidine in lymphocytes with Concanavalin A (Con A) at a concentration of 0.5 ug with compound at 1 uM
Homo sapiens [49] = organism: Homo sapiens; experiment: Mitogen-induced human lymphocyte proliferation measured by incorporation of [3H]thymidine in lymphocytes with Pokeweed mitogen at a concentration of 1/1250 ug with compound at 1 uM

`Nc1nc(O)c2c(C(=O)O)cn(C3O[C@H](CO)[C@@H](O)[C@H]3O)c2n1` (some centres undefined) gave an Incorporation (Homo sapiens [1]) of 12990, an Incorporation (Homo sapiens [2]) of 45537 and an Incorporation (Homo sapiens [3]) of 14865. For the same compound, the Incorporation (Homo sapiens [4]) was 43600, the Incorporation (Homo sapiens [5]) was 42735 and the Incorporation (Homo sapiens [6]) was 13682. For the same compound, the Incorporation (Homo sapiens [7]) was 52418, the Incorporation (Homo sapiens [8]) was 54392 and the Incorporation (Homo sapiens [9]) was 53594. The Incorporation (Homo sapiens [10]) was 1268, the Incorporation (Homo sapiens [11]) was 42670 and the Incorporation (Homo sapiens [12]) was 9782. For the same compound, the Incorporation (Homo sapiens [13]) was 15708, the Incorporation (Homo sapiens [14]) was 40053 and the Incorporation (Homo sapiens [15]) was 42486. For the same compound, the Incorporation (Homo sapiens [16]) was 40349, the Incorporation (Homo sapiens [17]) was 55547 and the Incorporation (Homo sapiens [18]) was 45121. For the same compound, the Incorporation (Homo sapiens [19]) was 47896, the Incorporation (Homo sapiens [20]) was 50597 and the Incorporation (Homo sapiens [21]) was 17242. For the same compound, the Incorporation (Homo sapiens [22]) was 42403, the Incorporation (Homo sapiens [23]) was 36835 and the Incorporation (Homo sapiens [24]) was 44790. It also gave an Incorporation (Homo sapiens [25]) of 14118, an Incorporation (Homo sapiens [26]) of 51152 and an Incorporation (Homo sapiens [27]) of 15707. It also gave an Incorporation (Homo sapiens [28]) of 10034, an Incorporation (Homo sapiens [29]) of 38824 and an Incorporation (Homo sapiens [30]) of 43757.
For `Nc1nc2c(c(C(=O)N[C@@H](CCC(=O)O)C(=O)O)nn2C2O[C@H](CO)[C@@H](O)[C@H]2O)c(=O)[nH]1` (some centres undefined), the Incorporation (Homo sapiens [2]) was 50330, the Incorporation (Homo sapiens [31]) was 16224 and the Incorporation (Homo sapiens [32]) was 50830. For the same compound, the Incorporation (Homo sapiens [33]) was 47573, the Incorporation (Homo sapiens [34]) was 41114 and the Incorporation (Homo sapiens [35]) was 49556. It also gave an Incorporation (Homo sapiens [36]) of 8002, an Incorporation (Homo sapiens [37]) of 53140 and an Incorporation (Homo sapiens [38]) of 40443. For the same compound, the Incorporation (Homo sapiens [16]) was 56641, the Incorporation (Homo sapiens [17]) was 44427 and the Incorporation (Homo sapiens [39]) was 51918. For the same compound, the Incorporation (Homo sapiens [40]) was 43786, the Incorporation (Homo sapiens [23]) was 50246 and the Incorporation (Homo sapiens [41]) was 45681. For the same compound, the Incorporation (Homo sapiens [42]) was 49105, the Incorporation (Homo sapiens [43]) was 6506 and the Incorporation (Homo sapiens [44]) was 14187. It also gave an Incorporation (Homo sapiens [45]) of 13781, an Incorporation (Homo sapiens [46]) of 12995 and an Incorporation (Homo sapiens [29]) of 49176. For the same compound, the Incorporation (Homo sapiens [47]) was 26393, the Incorporation (Homo sapiens [48]) was 49196 and the Incorporation (Homo sapiens [49]) was 56187.
